Experimental data as given in paper PMC6152727, “Potential of Icariin Metabolites from Epimedium koreanum Nakai as Antidiabetic Therapeutic Agents” (Molecules : A Journal of Synthetic Chemistry and Natural …, 2017).

Assays:
Assay type in all cases: biochemical
human recombinant PTP1B [1] = target: T1, human recombinant PTP1B (Homo sapiens, UniProt P18031); assay: PTP1B activity assay (pNPP substrate); conditions: mean ± SEM of triplicate experiments
T1 construct: purchased Biomol International LP (Plymouth Meeting, PA, USA)
T1 sequence (P18031 1-435): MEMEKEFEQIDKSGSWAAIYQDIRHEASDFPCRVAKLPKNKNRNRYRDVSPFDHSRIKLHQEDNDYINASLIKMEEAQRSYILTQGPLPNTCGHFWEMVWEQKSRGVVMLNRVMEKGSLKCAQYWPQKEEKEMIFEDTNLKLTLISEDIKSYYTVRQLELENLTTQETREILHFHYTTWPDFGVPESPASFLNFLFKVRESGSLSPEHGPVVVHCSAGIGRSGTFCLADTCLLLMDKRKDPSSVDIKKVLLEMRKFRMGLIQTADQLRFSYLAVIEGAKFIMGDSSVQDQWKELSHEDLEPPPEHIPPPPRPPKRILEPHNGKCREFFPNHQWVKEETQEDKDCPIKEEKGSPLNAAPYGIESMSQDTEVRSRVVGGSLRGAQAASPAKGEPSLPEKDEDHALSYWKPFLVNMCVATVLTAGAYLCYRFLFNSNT
Procedure: The abilities of the aerial parts of E. koreanum and their constituents to inhibit human recombinant PTP1B activity were evaluated using pNPP as a substrate. […] After incubation at 37 °C for 20 min in the dark, the reaction was terminated by addition of 10 M NaOH. The amount of p-nitrophenylate produced by enzymatic dephosphorylation of pNPP was determined by measuring the absorbance at 405 nm using a microplate spectrophotometer (Molecular Devices). Non-enzymatic dephosphorylation of pNPP was corrected by measuring the increase in absorbance at 405 nm obtained in the absence of PTP1B. […] The percent inhibition was calculated as {(AC − AS)/AC} × 100, where AC is the absorbance of the control, and AS is the absorbance of the sample. The IC50 is expressed as the mean ± SEM of triplicate experiments.

yeast α-glucosidase = assay: α-Glucosidase activity assay (pNPG substrate); conditions: for IC50: mean ± SEM of triplicate experiments, final concentration 20 to 300 μM
Procedure: α-Glucosidase enzymatic activity was assayed spectrophotometrically as described previously. Briefly, 60 μL of reaction mixture containing 20 μL of 100 mM phosphate buffer (pH 6.8), 20 μL of 2.5 mM pNPG, and 20 μL of sample (final concentration ranging from 20 to 300 μM, dissolved in 10% DMSO) was added to each well. After incubation at 37 °C for 5 min in the dark, 20 μL of yeast α-glucosidase (0.2 U/mL) in 10 mM phosphate buffer (pH 6.8) was added. The plate was then incubated at 37 °C for 15 min in the dark, after which the reaction was stopped by the addition of 80 μL of 0.2 M sodium carbonate solution. The absorbance was immediately recorded at 405 nm using a microplate spectrophotometer (Molecular Devices). The control consisted of the same reaction mixture but with the sample solution replaced by an equivalent volume of phosphate buffer. […] The inhibition percentage (%) was obtained using the same equation as in the PTP1B enzymatic assay.

human recombinant PTP1B [2] = target: T1, human recombinant PTP1B; assay: Enzyme kinetics analysis of PTP1B (Lineweaver–Burk and Dixon plots); conditions: for PTP1B Inhibition Type: determined by the Lineweaver–Burk plot
Procedure: The inhibition type and inhibition constant (Ki) of the two compounds were determined using Lineweaver–Burk and Dixon plots. Each line of the inhibitors penetrate the same point at the x-intercept, indicating noncompetitive-type inhibition, and the x-axis represent-Kiwhen 1/V = 0. […] The Dixon plot is an established method for determining the enzyme inhibition type and the Ki value for an enzyme-inhibitor complex, where the value of the x-axis indicates Ki.
In order to determine the inhibition mechanism, two complementary kinetics methods were used: Lineweaver–Burk and Dixon plots. The level of enzymatic inhibition at various concentrations of test sample was evaluated by monitoring the effect of different substrate concentrations in Dixon plots (single reciprocal plots). Dixon plots for PTP1B inhibition were obtained in the presence of different concentrations of pNPP. Using Lineweaver–Burk plots (double reciprocal plots), the inhibition modes of the compounds were determined at various concentrations of pNPP with different concentrations of compounds. The enzymatic procedures were the same as for the PTP1B assay methods. The types of inhibition were investigated by interpreting the Dixon plots, in which the value of the x-axis indicates Ki.

Row | Compound | IC50 (human recombinant PTP1B [1]) [µM] | IC50 (yeast α-glucosidase) [µM] | PTP1B Inhibition Type (human recombinant PTP1B [2]) | α-glucosidase inhibition (in words) (yeast α-glucosidase; at any of the tested concentrations) | Ki (human recombinant PTP1B [2]; determined by the Dixon plot) [µM]
1 | COc1ccc(-c2oc3c(CC=C(C)C)c(O[C@@H]4O[C@H](CO)[C@@H](O)[C@H](O)[C@H]4O)cc(O)c3c(=O)c2O[C@@H]2O[C@@H](C)[C@H](O)[C@@H](O)[C@H]2O[C@@H]2O[C@@H](C)[C@H](O)[C@@H](O)[C@H]2O)cc1 [Epimedin C, epimedin C] | > 300 | 403.9 ± 1.53 | – | – | –
2 | icariside II | – | 106.6 ± 0.44 | Non-competitive | – | –
3 | COc1ccc(-c2oc3c(CC=C(C)C)c(O[C@@H]4O[C@H](CO)[C@@H](O)[C@H](O)[C@H]4O)cc(O)c3c(=O)c2O[C@@H]2O[C@@H](C)[C@H](O)[C@@H](O)[C@H]2O)cc1 [Icariin, icariin] | > 300 | – | – | did not inhibit α-glucosidase activity at any of the tested concentrations | –
4 | COc1ccc(-c2oc3c(CC=C(C)C)c(OC4OC(CO)C(O)C(O)C4O)cc(O)c3c(=O)c2OC2OC(C)C(O)C(O)C2OC2OC(CO)C(O)C(O)C2O)cc1 (centres unmarked) [Epimedin A, epimedin A] | > 300 | 444.1 ± 3.8 | – | – | –
5 | COc1ccc(-c2oc3c(CC=C(C)C)c(O)cc(O)c3c(=O)c2O)cc1 [Icaritin, icaritin] | 11.6 ± 1.39 | 74.42 ± 0.01 | Non-competitive | – | 11.4
6 | COc1ccc(-c2oc3c(CC=C(C)C)c(O[C@@H]4O[C@H](CO)[C@@H](O)[C@H](O)[C@H]4O)cc(O)c3c(=O)c2O[C@@H]2O[C@@H](C)[C@H](O)[C@@H](O)[C@H]2O[C@@H]2OC[C@@H](O)[C@H](O)[C@H]2O)cc1 [Epimedin B, epimedin B] | > 300 | 452 ± 5.36 | – | – | –
